Entries after “also recorded” stand apart in the source; their conditions may differ. Where two headings read alike, the source gives them in different places.
How the values were obtained:
[1] = target: T1, stromelysin (catalytic domain) (Homo sapiens, UniProt P08254); assay: ESI-MS detection of noncovalent complexes and competition experiments with stromelysin; type: binding; details: for specificity of association (no greater than 1:1 complex): ESI-MS; for competition of two ligands for the same binding site: pairwise ESI-MS experiment, ternary complex present or absent; for competitive / non-competitive binder or non-binder: ESI-MS competition experiments, S1′ site, same binding site as 4-phenylpyridine
T1 construct: The catalytic domain of stromelysin was prepared in accordance with well-known known procedures; made in house
T1 sequence (P08254 100-272 limits assumed): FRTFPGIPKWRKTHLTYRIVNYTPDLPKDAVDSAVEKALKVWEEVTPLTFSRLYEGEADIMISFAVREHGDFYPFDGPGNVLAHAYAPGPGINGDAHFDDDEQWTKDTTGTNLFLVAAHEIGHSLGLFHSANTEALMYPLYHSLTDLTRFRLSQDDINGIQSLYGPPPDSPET
Method: FIGS. 7A-7E are ligands that are known to bind in the S1′ site on stromelysin. […] The relative dissociation constants for each for each ligand were measured to optimize the amide. Competition experiments were also performed to assure that each ligand bound in the same binding site as 4-phenylpyridine. [drawing 41]
Acetohydroxamic acid was used as the ligand for the first binding site of stromelysin. It has been reported that complexation of zinc with acetohydroxamic acid prevents autocatalytic degradation of the protein.
The ESI-MS measurements were recorded on a Perkin Elmer Sciex API III mass spectrometer. Samples were introduced via […] i.d. fused silica capillary from a 50 μL syringe using a Harvard Apparatus Model 22-syringe pump at a flow rate of 1.500 μL/min. The orifice potential was set between 55 and 65V, and the interface heater was at 56° C. Mass spectra were obtained by averaging a sufficient number of scans to obtain adequate signal to noise.
The sample was analyzed by ESI-MS.
The catalytic domain of stromelysin was prepared in accordance with well-known known procedures. […] The stromelysin used for this study was in a solution of 20 mM Tris buffer, 5 mM CaCl2, 0.02% NaN3 at a pH of 7.5 and at a concentration of either 19.6 mg/mL or 21.7 mg/mL. Acetohydroxamic acid was used for the zinc-binding site.
The second step in the design process was the identification of a second ligand that binds to the target stromelysin at a site different from the binding site of acetohydroxamic acid. This may be accomplished by screening compounds for their ability to bind stromelysin in the presence of saturating amounts of acetohydroxamic acid.
The next step in the design process was to construct a ternary complex of the target stromelysin, the first ligand and the second ligand. This was accomplished by exposing the stromelysin target to the two ligands under conditions that result in complex formation.

[2] = target: T2, protein tyrosine phosphatase 1b (PTP1b) (Homo sapiens, UniProt P18031); assay: ESI-MS detection of 1:1 noncovalent complex with PTP1b; type: binding; details: mass spectrometry; for formation of specific complex with PTP1b: 1:1 noncovalent complex
T2 sequence (P18031 1-435): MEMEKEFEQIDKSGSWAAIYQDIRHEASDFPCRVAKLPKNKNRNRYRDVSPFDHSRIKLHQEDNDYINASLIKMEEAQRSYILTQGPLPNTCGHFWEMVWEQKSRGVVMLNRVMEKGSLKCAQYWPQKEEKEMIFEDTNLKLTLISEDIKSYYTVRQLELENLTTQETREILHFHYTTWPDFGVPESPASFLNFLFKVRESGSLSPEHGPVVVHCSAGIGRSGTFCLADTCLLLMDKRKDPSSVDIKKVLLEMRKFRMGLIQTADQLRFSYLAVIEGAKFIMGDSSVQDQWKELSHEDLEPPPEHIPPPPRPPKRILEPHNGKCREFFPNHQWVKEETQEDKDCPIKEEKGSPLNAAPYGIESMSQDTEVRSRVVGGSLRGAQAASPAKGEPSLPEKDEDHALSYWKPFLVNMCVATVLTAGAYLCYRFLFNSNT
Method: (§1) The candidate target binding ligands shown below were tested by mass spectrometry in a manner similar to Example 1 to determine whether any of the fragments bound specifically to the target biomolecule, protein tyrosine phosphatase 1b (PTP1b), observed 1:1 noncovalent complex. Fragment molecules were chosen based on either their ability to mimic the stabilized transition state of PTP1b with a tyrosine phosphate ester or based on their known or suspected ability to inhibit cysteine proteases and the homology or similarities in the active sites PTP1b and cysteine proteases. The transition state mimics included in the library are derivatives of moniliformin and deltic acid. Each of these compounds contain a planar arrangement of oxygen atoms around and electrophilic center, similar to the planar arrangement of oxygen atoms around an electrophilic phosphorous in the stabilized transition state complex of phosphotyrosine and PTP1b. Also contained in the library were various examples of some fragment molecules containing functional groups known or suspected to interact with an active site cysteine of cysteine proteases. Included in this example are aldehydes, α-ketoacids, boronic acids, and […]. Other fragment molecules could contain functional groups such as α-ketoesters, sulfonyl fluorides, haloketones, azabenzenes, and disulfides and other fragment molecules that contain functional groups known or suspected to react with mercaptans. […] The ability of these fragments to block the function of PTP1b was determined by a chromagenic substrate assay.

PTP1b = target: T3, PTP1b (Homo sapiens, UniProt P18031); assay: chromagenic substrate assay of PTP1b function; type: biochemical; details: titration curves, FIG. 4
T3 sequence (P18031 1-435): T2 sequence (P18031 1-435)
Method: FIG. 4 is a graph of titration curves used to determine the IC50 of the squaric acid fragment 8A and moniliformin.
as §1

SMILES | specificity of association (no greater than 1:1 complex) [1] | competition of two ligands for the same binding site [1] | further results
N#Cc1ccc(-c2ccc(O)cc2)cc1 [4-(4′-cyanophenyl)-phenol] | specific | do not compete for the same binding site on a protein | –
COc1ccc(C(=O)Nc2ccccc2)cc1 [4-methoxy-N-phenylbenzamide] | specific | compete for the same binding site on the protein | –
c1ccc(-c2ccncc2)cc1 [4-phenylpyridine] | specific; also recorded: bind to the protein specifically | – | –
O=c1c(O)c(-c2ccccc2)c1=O [Compound 8A] | – | – | formation of specific complex with PTP1b [2]: formed specific complexes with PTP1b; Kd ([2]; read-out: binding constant (Kd)): 25 µM; IC50 (PTP1b; read-out: IC50): 60 µM
O=CCCc1ccccc1 [Compound 8D] | – | – | formation of specific complex with PTP1b [2]: formed specific complexes with PTP1b; IC50 (PTP1b): did not have the ability to block function
c1ccc(-c2ccncc2)cc1 [Ligand 7B] | – | – | competitive / non-competitive binder or non-binder [1]: non-competitive binders
COc1ccc(C(=O)NCc2ccccc2)cc1 [Ligand 7G] | – | – | competitive / non-competitive binder or non-binder [1]: competitive binders
N#Cc1ccc(NC(=O)Cc2ccccc2)cc1 [N-(4-cyanophenyl)-2-phenylacetamide] | bind to the protein specifically | do not compete for the same binding site on the protein | –
CC(=O)NO [acetohydroxamic acid] | specific | do not compete for the same binding site on a protein | –
O=c1cc(O)c1=O [moniliformin] | – | – | IC50 (PTP1b; read-out: IC50): 12 µM

— US20020172967A1, “Identification of non-covalent complexes by mass spectrometry” (priority 2001, published 2002)
